Test results as given in ChEMBL document CHEMBL5321282, “Design, Synthesis, and Biological Evaluation of Esculetin-Furoxan-DEAC Ternary Hybrids for Anti-Triple Negative Breast Cancer” (J Med Chem, 2023).
Calls of active or inactive are those of the source. The calls are words filed in the database; no cut-off is given here.

Tests used:
MDA-MB-231 [1] = experiment: Antiproliferative activity against human MDA-MB-231 cells assessed as inhibition of cell growth measured after 48 hrs by MTT assay; type: functional, cell-based; conditions: MDA-MB-231, 48 h
MCF7 = experiment: Antiproliferative activity against human MCF7 cells assessed as inhibition of cell growth measured after 48 hrs by MTT assay; type: functional, cell-based; conditions: MCF7, 48 h
HCT-116 = experiment: Antiproliferative activity against human HCT-116 cells assessed as inhibition of cell growth measured after 48 hrs by MTT assay; type: functional, cell-based; conditions: HCT-116, 48 h
A549 = experiment: Antiproliferative activity against human A549 cells assessed as inhibition of cell growth measured after 48 hrs by MTT assay; type: functional, cell-based; conditions: A549, 48 h
[2] = Selectivity index, ratio of IC50 for cytotoxicity against human L02 cells to IC50 for antiproliferative activity against human MDA-MB-231 cells; type: toxicity, cell-based; conditions: L02 cells versus MDA-MB-231 cells, read-out: Ratio IC50
[3] = Cytotoxicity against human MCF-10A cells assessed as inhibition in cell growth measured after 48 hrs by MTT assay; type: toxicity, cell-based
MDA-MB-231 [4] = experiment: Antiproliferative activity against human MDA-MB-231 cells assessed as effect on NO level at 25 uM incubated for 2 hrs; type: functional, cell-based
[5] = Cytotoxicity against human L02 cells assessed as inhibition in cell growth measured after 48 hrs by MTT assay; type: toxicity, cell-based
[6] = Selectivity index, ratio of IC50 for cytotoxicity against human MCF-10A cells to IC50 for antiproliferative activity against human MDA-MB-231 cells; type: toxicity, cell-based; conditions: MCF-10A cells versus MDA-MB-231 cells, read-out: Ratio IC50
MDA-MB-231 [7] = experiment: Antiproliferative activity against human MDA-MB-231 cells assessed as inhibition of cell growth measured after 48 hrs in presence of 3,4-bis(phenylsulfonyl)-1,2,5-oxadiazole 2-oxide by MTT assay; type: functional, cell-based; conditions: MDA-MB-231, 48 h
MDA-MB-231 [8] = experiment: Induction of apoptosis in human MDA-MB-231 cells assessed as effect on ANT level at 20 nM incubated for 8 hrs by Western blotting analysis; type: functional, cell-based
MDA-MB-231 [9] = experiment: Induction of apoptosis in human MDA-MB-231 cells assessed as increase in CypD level incubated for 8 hrs by Western blotting analysis; type: functional, cell-based; conditions: dose 5-20 nM
MDA-MB-231 [10] = experiment: Antiproliferative activity against human MDA-MB-231 cells assessed as inhibition of cell growth measured after 48 hrs in presence of 7-(diethylamino)-2-oxo-2H-chromene-3-carboxylic acid by MTT assay; type: functional, cell-based; conditions: MDA-MB-231, 48 h
[11] = Toxicity in BALB/C mouse xenografted with human MDA-MB-231 cells assessed as change in body weight at 2.5 mg/kg, ip administered every 2 days measured after 3 weeks; type: organism-based; conditions: in vivo, 504 h

## O=c1ccc2cc(O)c(OCCCCCOc3no[n+]([O-])c3S(=O)(=O)c3ccccc3)cc2o1
MDA-MB-231 [1]
  IC50: 2.16 µM
MCF7
  IC50: 7.94 µM
HCT-116
  IC50: 4.28 µM
A549
  IC50: 12.8 µM

## CCN(CC)c1ccc2cc(C(=O)OCCCCOc3cc4ccc(=O)oc4cc3OCCCCCCOc3no[n+]([O-])c3S(=O)(=O)c3ccccc3)c(=O)oc2c1
MDA-MB-231 [1]
  IC50: 0.053 µM
MCF7
  IC50: 2.44 µM
HCT-116
  IC50: 3.75 µM
A549
  IC50: 1.61 µM

## O=c1ccc2cc(OCCCCOc3no[n+]([O-])c3S(=O)(=O)c3ccccc3)c(OCCCCOc3no[n+]([O-])c3S(=O)(=O)c3ccccc3)cc2o1
[2]
  selectivity ratio: 134
[3]
  IC50 at 48 h: 6.44 µM
MDA-MB-231 [4]
  Activity: Active
MDA-MB-231 [1]
  IC50: 0.042 µM
[5]
  IC50 at 48 h: 5.64 µM
MCF7
  IC50: 3.7 µM
HCT-116
  IC50: 2.03 µM
[6]
  selectivity ratio: 153
A549
  IC50: 1.21 µM

## CCN(CC)c1ccc2cc(C(=O)OCCCCCCOc3cc4ccc(=O)oc4cc3OCCCCCCOc3no[n+]([O-])c3S(=O)(=O)c3ccccc3)c(=O)oc2c1
MDA-MB-231 [1]
  IC50: 0.108 µM
MCF7
  IC50: 2.99 µM
HCT-116
  IC50: 9.14 µM
A549
  IC50: 4.43 µM

## O=c1ccc2cc(O)c(O)cc2o1 [ESCULETIN]
MDA-MB-231 [1]
  IC50: > 50 µM
MCF7
  IC50: > 50 µM
HCT-116
  IC50: > 50 µM
MDA-MB-231 [7]
  IC50: 7.47 µM
A549
  IC50: > 50 µM

## O=S(=O)(c1ccccc1)c1no[n+]([O-])c1S(=O)(=O)c1ccccc1
MDA-MB-231 [1]
  IC50: 7.91 µM

## O=c1ccc2cc(O)c(OCCCCOc3no[n+]([O-])c3S(=O)(=O)c3ccccc3)cc2o1
MDA-MB-231 [1]
  IC50: 1.99 µM
MCF7
  IC50: 8.71 µM
HCT-116
  IC50: 5.02 µM
A549
  IC50: 11.8 µM

## CCN(CC)c1ccc2cc(C(=O)OCCCCCCOc3no[n+]([O-])c3S(=O)(=O)c3ccccc3)c(=O)oc2c1
MDA-MB-231 [8]
  Activity: inactive
MDA-MB-231 [9]
  Activity: inactive

## CCN(CC)c1ccc2cc(C(=O)OCCCOc3cc4ccc(=O)oc4cc3OCCCCCCOc3no[n+]([O-])c3S(=O)(=O)c3ccccc3)c(=O)oc2c1
MDA-MB-231 [1]
  IC50: 0.053 µM
MCF7
  IC50: 1.06 µM
HCT-116
  IC50: 3.26 µM
A549
  IC50: 2.26 µM

## O=c1ccc2cc(OCCCCCCOc3no[n+]([O-])c3S(=O)(=O)c3ccccc3)c(OCCCCCCOc3no[n+]([O-])c3S(=O)(=O)c3ccccc3)cc2o1
MDA-MB-231 [1]
  IC50: 0.148 µM
MCF7
  IC50: 10.4 µM
HCT-116
  IC50: 2.41 µM
A549
  IC50: 3.05 µM

## O=c1ccc2cc(OCCCCCOc3no[n+]([O-])c3S(=O)(=O)c3ccccc3)c(OCCCCCOc3no[n+]([O-])c3S(=O)(=O)c3ccccc3)cc2o1
MDA-MB-231 [1]
  IC50: 0.1 µM
MCF7
  IC50: 2.12 µM
HCT-116
  IC50: 3.1 µM
A549
  IC50: 2.82 µM

## O=c1ccc2cc(O)c(OCCCCCCOc3no[n+]([O-])c3S(=O)(=O)c3ccccc3)cc2o1
[2]
  selectivity ratio: 47.8
[3]
  IC50 at 48 h: 12.6 µM
MDA-MB-231 [4]
  Activity: Active
MDA-MB-231 [1]
  IC50: 0.12 µM
[5]
  IC50 at 48 h: 5.73 µM
MDA-MB-231 [10]
  IC50: 0.13 µM
MCF7
  IC50: 5.3 µM
HCT-116
  IC50: 2.69 µM
[6]
  selectivity ratio: 394
A549
  IC50: 12.5 µM

## O=c1ccc2cc(OCCCOc3no[n+]([O-])c3S(=O)(=O)c3ccccc3)c(OCCCOc3no[n+]([O-])c3S(=O)(=O)c3ccccc3)cc2o1
MDA-MB-231 [1]
  IC50: 0.058 µM
MCF7
  IC50: 2.33 µM
HCT-116
  IC50: 1.12 µM
A549
  IC50: 1.96 µM

## O=c1ccc2cc(O)c(OCCCOc3no[n+]([O-])c3S(=O)(=O)c3ccccc3)cc2o1
MDA-MB-231 [1]
  IC50: 2.16 µM
MCF7
  IC50: 11.3 µM
HCT-116
  IC50: 5.97 µM
A549
  IC50: 12.1 µM

## COc1cccc2c1C(=O)c1c(O)c3c(c(O)c1C2=O)C[C@@](O)(C(=O)CO)C[C@@H]3O[C@H]1C[C@H](N)[C@H](O)[C@H](C)O1 [DOXORUBICIN]
[3]
  IC50 at 48 h: 0.74 µM
[5]
  IC50 at 48 h: 0.6 µM
[11]
  Activity: Non-Toxic
MCF7
  IC50: 0.74 µM
HCT-116
  IC50: 0.15 µM
